The data set is described as follows: Human HepG2 cell viability assay in 384 well format. The data set is classed as toxicity, cell-based. Further details: dose 125 nL, time 70.5 hour; cytotoxicity at 70.5 h: concentration not given beside the values. As to conditions: HepG2 cells, read-out: Inhibition.

Consider `COc1cccc2sc(N(C)CC(=O)NCc3nc(C)no3)nc12`, for which the cytotoxicity at 70.5 h is -3.58%.

Turning to `CC(C)(C)C(=O)NCc1cnn2ccccc12`, the cytotoxicity at 70.5 h was -6.45%.

As for `Cc1[nH]c2ccc(CNC(=O)c3ccc(CN4CCCC4)o3)cc2c1C`, the cytotoxicity at 70.5 h was -7.28%.

For `O=C(O)[C@@H]1CN(C(=O)c2ccc(O)cc2)C[C@H]1c1cccc(F)c1`, the cytotoxicity at 70.5 h came to 14.4%.

For the molecule `CCn1ccc2ccc(CN3CCCC3c3nc(C(C)C)no3)cc21` (stereo not given), the cytotoxicity at 70.5 h was -10.7%.

For the molecule `CS(=O)(=O)CCN1CCC2(CCCN(C3CCOCC3)C2=O)C1` (stereo not given), the cytotoxicity at 70.5 h is -5.34%.

For `CC(C)CCN1CC2(CCCN(C(=O)c3cscn3)C2)CCC1=O` (stereo not given), the cytotoxicity at 70.5 h is -8.72%.

Take `Cc1noc(C)c1CCC(=O)N1CCN(CCn2cncn2)CC1`: the cytotoxicity at 70.5 h was -1.34%.

For `COc1ccc([C@@H]2CN(C(=O)CCC(F)(F)F)C[C@H]2NC(C)=O)cc1`, the cytotoxicity at 70.5 h is -5.27%.

On to `COc1nccc(N2CCN(Cc3ccc(C)cc3)C(=O)C2)c1C#N`, for which the cytotoxicity at 70.5 h is 1.75%.

Turning to `COCCN1CCC(CN(CC2CCCO2)C(=O)COC)CC1` (stereo not given), the cytotoxicity at 70.5 h is 13.8%.

Turning to `O=S1(=O)COCCN1Cc1ccc(Cl)c(F)c1`, the cytotoxicity at 70.5 h is -6.23%.

In the case of `O=C(c1c[nH]c(=O)c(Cl)c1)N1C[C@@H]2CC[C@H](C1)N(Cc1ccccc1)C2`, the cytotoxicity at 70.5 h was -1.59%.

In the case of `Cc1cc(C[C@@H]2COC[C@@H]2NC(=O)Cn2c(=O)oc3ccccc32)on1`, the cytotoxicity at 70.5 h turned out to be 1.37%.

Turning to `CCN(CC)S(=O)(=O)N1CCCC(c2ccc(C(=O)O)cc2)C1` (stereo not given), the cytotoxicity at 70.5 h was -4.81%.

For the molecule `CN(C)S(=O)(=O)N1CCC2(CCCN(Cc3ccc(F)cc3)C2=O)C1` (stereo not given), the cytotoxicity at 70.5 h was -2.15%.

As for `CN(C)CCCn1ccnc1C1CCCN(c2cc(N)ncn2)C1` (stereo not given), the cytotoxicity at 70.5 h was -4.4%.

`CCn1nc(CC(C)C)cc1C(=O)NCCCOC`: the cytotoxicity at 70.5 h was -0.898%.

As to `CN(C)C(=O)N1C[C@@H]2CC[C@H](C1)N(Cc1ccc3nsnc3c1)C2`, the cytotoxicity at 70.5 h was -5.73%.

On to `COc1cc(N2CCCC(c3nccn3CCN(C)C)C2)nc(N)n1` (stereo not given), for which the cytotoxicity at 70.5 h is -8.19%.

As to `Cc1ncsc1CCC(=O)NCc1cc2n(n1)CCN(C(=O)N(C)C)C2`, the cytotoxicity at 70.5 h came to 13.9%.

On to `O=C1N(CCCc2ccccc2)CCCC1(O)CNCc1ccccc1` (stereo not given), for which the cytotoxicity at 70.5 h is -10.4%.

For the molecule `CCn1ccnc1-c1nc2cc(S(=O)(=O)N3CCCC3)ccc2n1C`, the cytotoxicity at 70.5 h is -3.32%.

With `CN(C)C(=O)CN1C[C@@H]2CC[C@H](C1)N(C(=O)CCn1cncn1)C2`, the cytotoxicity at 70.5 h was -12.6%.

As for `COc1cccc(C)c1C(=O)N1C[C@@H](CN(C)C)[C@@H](CO)C1`, the cytotoxicity at 70.5 h was -4.7%.

In the case of `CCn1nc(C)c(CNC(=O)c2cn(CCC3CCCCN3)nn2)c1C` (stereo not given), the cytotoxicity at 70.5 h is -7.47%.

In the case of `Cc1nc(CCCNC(=O)C2CC(=O)N(C3CC3)C2)sc1C` (stereo not given), the cytotoxicity at 70.5 h was 3.65%.

With `O=C(NCCc1ccncc1)C1CCN(Cc2ccco2)CC1`, the cytotoxicity at 70.5 h is 10.1%.

With `COc1cccn(CC(=O)N(C)CCOc2cc(C)cc(C)c2)c1=O`, the cytotoxicity at 70.5 h was 2.11%.

`CSc1ccccc1CN1CCCn2nc(CNC(=O)N(C)C)cc2C1`: the cytotoxicity at 70.5 h was -1.85%.

`CCC1(CO)CCCN(c2ncccc2C#N)C1` (stereo not given): the cytotoxicity at 70.5 h is 15.7%.

Take `O=C1CCC2(CCN(Cc3cc(F)cc(F)c3)CC2)CN1CCO`: the cytotoxicity at 70.5 h is -1.2%.

As for `COCc1noc(-c2ccc(N3CCCCC3CO)nc2)n1` (stereo not given), the cytotoxicity at 70.5 h is -6.84%.

Consider `COc1cnc(N2CCC(Oc3ccccc3OC)(C(=O)O)CC2)nc1`, for which the cytotoxicity at 70.5 h was -3.07%.

`Nc1nccc(NCc2cc3n(n2)CCCN(C(=O)C2CCC2)C3)n1`: the cytotoxicity at 70.5 h is -6.62%.

`CSc1ncccc1C(=O)N1CCC(c2nc3c(C)cccc3[nH]2)CC1`: the cytotoxicity at 70.5 h is 12.8%.

On to `COc1cccc(OCC2CCCN(C(=O)c3cnc(C)nc3O)C2)c1` (stereo not given), for which the cytotoxicity at 70.5 h was -9.18%.

Take `CC(C)N(C)C(=O)CN1CCCC(c2ccc(C(=O)O)cc2)C1` (stereo not given): the cytotoxicity at 70.5 h worked out at 32.3%.

Consider `CC(CN1CCOCC1)NCc1nncn1C1CCCCC1` (stereo not given), for which the cytotoxicity at 70.5 h was -3.01%.

Regarding `CN(Cc1noc(C2CC2)n1)C1CCN(Cc2ccccc2C#N)C1` (stereo not given), the cytotoxicity at 70.5 h is 17.8%.

Consider `Cc1ncc(CN2CCC(N(C)Cc3noc(C4CC4)n3)C2)s1` (stereo not given), for which the cytotoxicity at 70.5 h turned out to be 19%.

Consider `Cc1ccc(C(CNC(=O)NCc2ccccn2)N2CCOCC2)o1` (stereo not given), for which the cytotoxicity at 70.5 h stood at 13.1%.

For the molecule `O=C1C(NCc2nnc3n2CCCC3)CCCN1c1ccccc1` (stereo not given), the cytotoxicity at 70.5 h was -7.11%.

Regarding `Cn1cc(CC2CCN(C(=O)NCc3cccc(C(N)=O)c3)C2)cn1` (stereo not given), the cytotoxicity at 70.5 h was -13.1%.

On to `CS(=O)(=O)NCC1CCCN(C(=O)COCC2CC2)C1` (stereo not given), for which the cytotoxicity at 70.5 h is -22.4%.

`Cc1ccccc1OCC(=O)N1CCCC(CNS(C)(=O)=O)C1` (stereo not given): the cytotoxicity at 70.5 h is -5.65%.

As to `O=C(NCc1nn(-c2ccccc2)c2c1CCC2)C1CC1`, the cytotoxicity at 70.5 h is -3.11%.

For `CCn1ccnc1CN1CCN(CC(O)CN2CCOCC2)CC1` (stereo not given), the cytotoxicity at 70.5 h is -15.7%.

As for `Cn1ccnc1CN1CCN(CC(O)c2ccccc2)CC1` (stereo not given), the cytotoxicity at 70.5 h was -12.2%.

On to `CCc1ocnc1C(=O)N1CCCC1c1noc(C(C)C)n1` (stereo not given), for which the cytotoxicity at 70.5 h is -11%.

Take `COC(=O)NCC(=O)NCc1nn(-c2ccccc2)c2c1CCC2`: the cytotoxicity at 70.5 h was -4.34%.

For the molecule `CCOc1cccc(CNC(=O)N2CCC(Cc3cnn(C)c3)C2)c1` (stereo not given), the cytotoxicity at 70.5 h was -13.7%.

For `CCOc1ccccc1CNC(=O)N1CCC(Cc2cnn(C)c2)C1` (stereo not given), the cytotoxicity at 70.5 h stood at 7.83%.

Turning to `CS(=O)(=O)NC1CCCN(C(=O)COCc2ccccc2)C1` (stereo not given), the cytotoxicity at 70.5 h was -10.6%.

In the case of `CC(O)CN1CCC(CNCc2ccccc2F)CC1` (stereo not given), the cytotoxicity at 70.5 h was -1.41%.

With `CC(O)CN1CCC(CNCc2ccccc2C(F)(F)F)CC1` (stereo not given), the cytotoxicity at 70.5 h was found to be 13.9%.

Take `CCc1ocnc1C(=O)N1CCCC1c1noc(C)n1` (stereo not given): the cytotoxicity at 70.5 h was -5.19%.

Turning to `Cc1cnn(CC2CCCN2Cc2c(C)noc2C)c1` (stereo not given), the cytotoxicity at 70.5 h is -3.04%.

Consider `CCc1nc(C2CCCN2C(=O)c2cnns2)no1` (stereo not given), for which the cytotoxicity at 70.5 h was -8.27%.

As to `Cc1nc(C)n(C2CCCN(C(=O)c3cncnc3C)C2)n1` (stereo not given), the cytotoxicity at 70.5 h was 2.45%.

Turning to `Cc1ccc(C(C)C(=O)N2CCCN(Cc3cscn3)CC2)cc1` (stereo not given), the cytotoxicity at 70.5 h was determined as 5.25%.

With `O=C(Cc1ccccc1Cl)N1CCN(CC(O)COCCO)CC1` (stereo not given), the cytotoxicity at 70.5 h was determined as 1.21%.

Consider `CCn1ccnc1CN1CCCN(C(=O)c2ccnc(C)n2)CC1`, for which the cytotoxicity at 70.5 h is 14.4%.

For the molecule `Cc1ncsc1C(=O)NCc1ccnc(N2CCN(C)CC2)c1`, the cytotoxicity at 70.5 h was -7.54%.

On to `CCN(CC)c1ccc(C(=O)N2CCC(c3nc(C)no3)CC2)cn1`, for which the cytotoxicity at 70.5 h was -7.84%.

As for `NC(=O)Cn1cc(NC(=O)N2CCN(c3ccccc3)CC2)cn1`, the cytotoxicity at 70.5 h was -12.6%.

Take `Cc1noc(C2CCN(C(=O)c3ccc(C(F)(F)F)nc3)CC2)n1`: the cytotoxicity at 70.5 h is -5.24%.

Consider `NC(=O)Cn1cc(NC(=O)N2CCSCC2)cn1`, for which the cytotoxicity at 70.5 h was 15.3%.

For the molecule `Cc1nc(CN2CCN(C(C)c3nc(C(C)C)no3)CC2)oc1C` (stereo not given), the cytotoxicity at 70.5 h is -0.487%.

As to `Cc1cnn(CC2CN(CC(=O)Nc3nccs3)CCO2)c1` (stereo not given), the cytotoxicity at 70.5 h was -2.45%.

Regarding `Cc1cnn(CC2CN(CC(=O)Nc3nncs3)CCO2)c1` (stereo not given), the cytotoxicity at 70.5 h is -1.53%.

As for `CCOCC(O)CN1CCN(C(=O)Cc2cccc(Cl)c2)CC1` (stereo not given), the cytotoxicity at 70.5 h was -5.95%.

Consider `Cc1nc2cc(=O)[nH]n2c(C)c1CC(=O)NCc1ccc(C#N)cc1`, for which the cytotoxicity at 70.5 h is -0.462%.

With `CNc1cc(N2CCCC2CNCc2csc(C)n2)ncn1` (stereo not given), the cytotoxicity at 70.5 h was determined as 6.11%.

On to `Cc1nc(C)n(CC2CCCCN2CCc2ccncc2)n1` (stereo not given), for which the cytotoxicity at 70.5 h came out at 16.8%.

As to `CC(C)(C)c1n[nH]c(C2CN(C(=O)CCc3cccs3)CCO2)n1` (stereo not given), the cytotoxicity at 70.5 h was -8.77%.

Take `CCCc1n[nH]c(C2CN(C(=O)CCc3cscn3)CCO2)n1` (stereo not given): the cytotoxicity at 70.5 h was -1.57%.

As for `Cc1noc(C(C)N2CCN(Cc3nc(C)c(C)o3)CC2)n1` (stereo not given), the cytotoxicity at 70.5 h was -3.69%.

On to `Cc1cc(C)n(CC2CCCN2CCS(C)(=O)=O)n1` (stereo not given), for which the cytotoxicity at 70.5 h was -9.56%.

In the case of `CCn1ccnc1CN1CCCN(C(=O)c2ccnn2C)CC1`, the cytotoxicity at 70.5 h was -3.84%.

As for `CCCN1CCCC1Cn1nc(C)cc1C` (stereo not given), the cytotoxicity at 70.5 h was -3.07%.

On to `CCc1ccc(C(=O)N2CCCC(n3nc(C)nc3C)C2)o1` (stereo not given), for which the cytotoxicity at 70.5 h is 13.2%.

On to `CC(Cc1ccco1)NC(=O)Nc1cccnc1` (stereo not given), for which the cytotoxicity at 70.5 h is 2.87%.

With `COc1ccccc1OCCNCc1c(C(C)C)nn(C)c1N(C)C`, the cytotoxicity at 70.5 h was determined as 34.1%.

Regarding `Cc1nc(C2CCCN2CC(=O)NCCOc2cccc(F)c2)no1` (stereo not given), the cytotoxicity at 70.5 h came to 19.2%.

Regarding `O=C(c1cccnc1N1CCOCC1)N1CCCC(n2cncn2)C1` (stereo not given), the cytotoxicity at 70.5 h amounted to 18.2%.

`CCc1nc(CC(=O)N2CCn3c(C)nnc3C2)cs1`: the cytotoxicity at 70.5 h is -6.05%.

On to `COc1cc(CNCCc2cnn(C)c2)cc(OC)c1OC`, for which the cytotoxicity at 70.5 h is 21.4%.

For the molecule `CC(C)c1nn(C)c(N(C)C)c1CNCc1cccnc1N(C)C`, the cytotoxicity at 70.5 h was 0.645%.

On to `Cc1cc(C)c(CNC(=O)NCC2CCCOC2)c(=O)[nH]1` (stereo not given), for which the cytotoxicity at 70.5 h was -11.1%.

`Cc1nc(C)n(CC2CCCN(CC(=O)Nc3nnc(C)s3)C2)n1` (stereo not given): the cytotoxicity at 70.5 h amounted to 17.5%.

For the molecule `Cc1nc(C)n(CC2CCCN(CC(=O)Nc3cc(C)on3)C2)n1` (stereo not given), the cytotoxicity at 70.5 h is -2.38%.

Consider `CC(C)c1nnc2n1CCN(C(=O)Cc1csc(C(C)(C)C)n1)C2`, for which the cytotoxicity at 70.5 h is -8.69%.

As for `CC(=O)c1ccc(OCC(=O)NS(=O)(=O)c2cccnc2)cc1`, the cytotoxicity at 70.5 h is 17.6%.

In the case of `Cc1nnc2n1CCN(C(=O)c1cc(Cl)c(Br)[nH]1)C2`, the cytotoxicity at 70.5 h was -2.93%.

As to `Cc1nc(CC(=O)N2CCn3c(nnc3C(C)C)C2)cs1`, the cytotoxicity at 70.5 h was -2.25%.

Turning to `CC(C)c1ccc(OCC(=O)NS(=O)(=O)c2cccnc2)cc1`, the cytotoxicity at 70.5 h was -0.457%.

Consider `Cc1cc(OCC(=O)NS(=O)(=O)c2cccnc2)ccc1Cl`, for which the cytotoxicity at 70.5 h is -2.82%.

For `CC(C)c1nn(C)c(N(C)C)c1CNCc1ccccc1CO`, the cytotoxicity at 70.5 h came to 0.684%.

With `CC(C)c1nn(C)c(N(C)C)c1CNCc1cccc2cccnc12`, the cytotoxicity at 70.5 h amounted to 5.24%.

The record behind these values is ChEMBL document CHEMBL3507680, “University of Dundee, Gates Library screen for HepG2 cell viability”.
